From US8912163B2, “Compositions for the treatment or prophylaxis of viral infections” (Katholieke Universiteit Leuven, priority 2007, dated 2014)
Values after ≈ are worked out from the molar mass of the structure shown. Read-outs that look alike come from different tables or passages of the source.

Assays:
[1] = Water-solubility by HPLC; assay type: physicochemical; details: deionised water, room temperature; for solubility: thermodynamic from solid
Description: HPLC was carried out on a Waters 484 System using Novapack C18 reverse phase column. Flow rate: 1 mL/min. Detection: UV 254 nm. […] The samples were centrifuged at 14.000 rpm in an Eppendorf micro-centrifuge for 1.5 min at room temperature. An aliquot of the clear supernatant was removed and diluted to a concentration within the range of a five-point standard curve. Water-solubility was calculated from each peak area of the above solution by HPLC compared with the sample dissolved in acetonitrile, the concentration of which is already known.

[2] = test system: VZV; experiment: Anti-VZV activity in VZV-infected HEL cell cultures (general statements); assay type: cell-based, Varicella Zoster virus; details: HEL cells
Description: The objective of this study was to compare the antiviral activity of Compounds 1, 3, 5, 7 and 9 in HEL cells inoculated with VZV strains. Antiviral activity was assessed as the ability of Compounds 1, 3, 5, 7 and 9 to reduce viral plaque formation after incubation periods of 5 days as compared to untreated control cultures.
(§1) VZV-drug susceptibility assays were performed on confluent HEL cells in 96-well microtiter plates. Monolayers were infected with 20 PFU of cell-associated virus per well. For each assay, virus controls (infected-untreated cells) were included. After a 2-hour incubation period, the virus inoculum was removed and the media replaced by the different dilutions (in duplicate) of the tested molecules. Serial dilutions of test compounds were incubated with the infected monolayers for 5 days. After the 5-day incubation period, the cells were fixed and stained with Giemsa, and the level of virus-induced cytopathic effect was determined by counting the number of plaques for each dilution.

[3] = test system: VZV TK+ YS; experiment: VZV plaque reduction in HEL cells, TK+ strain YS; assay type: cell-based, Varicella Zoster virus; details: 5 days
Description: as §1

[4] = test system: HEL cells; experiment: in vitro; assay type: cell-based
[5] = in vitro; assay type: cell-based; details: human
[6] = test system: VZV TK− 07/1; experiment: VZV plaque reduction in HEL cells, TK- strain 07/1; assay type: cell-based, Varicella Zoster virus
Description: as §1

[7] = test system: VZV TK+ OKA; experiment: VZV plaque reduction in HEL cells, TK+ strain OKA; assay type: cell-based, Varicella Zoster virus
Description: as §1

[8] = Oral bioavailability in mice: Compound 1 in plasma after single oral gavage; assay type: in vivo; details: for Compound 1 in plasma (area under the curve (HPLC)): dose equivalent to 25 mg/kg of Compound 1, relative peak area
From the text: The results of this study are shown in Table 1 below and in FIG. 1 of the accompanying drawings.

[9] = Conversion in bovine serum (10%); assay type: in vitro ADME; details: Bovine serum 10% in PBS, 37° C.
Description: (§2) A variety of test compounds have been evaluated for their substrate activity against purified CD26, human serum (HS), and bovine serum (BS) in Eppendorf tubes. The 400 μL reaction mixture contained 50 μM of test compound in PBS (containing 0.1% DMSO). […] At different time points, 100 μL was withdrawn from the reaction mixture, added to 200 μL methanol, and put on ice for ˜10 min. Then, the mixture was centrifuged at 13,000 rpm for 5 min at 4° C. and 250 μL of supernatant was analyzed by HPLC on a reverse phase RP-8 column, using following gradients: […]
(§3) Gradient A (Buffer A: 50 mM NaH2PO4+5 mM heptane-sulfonic acid pH 3.2; buffer B: acetonitrile): 2 min 98% A+2% B; 6 min linear gradient to 80% A+20% B; 2 min linear gradient to 75% A+25% B; 2 min linear gradient to 65% A+35% B; 18 min linear gradient to 50% A+50% B; 5 min 50% A+50% B; 5 min linear gradient to 98% A+2% B; 5 min equilibration at 98% A+2% B.
(§4) Gradient B: 2 min 98% A+2% B; 6 min linear gradient to 80% A+20% B; 2 min linear gradient to 75% A+25% B; 2 min linear gradient to 65% A+35% B; 8 min linear gradient to 50% A+50% B; 10 min 50% A+50% B; 10 min linear gradient to 20% A+80% B; 5 min 20% A+80% B; 15 min linear gradient to 98% A+2% B; 5 min 98% A+2% B.

[10] = target: purified CD26 (Homo sapiens, UniProt P27487); experiment: Conversion (substrate activity) by purified CD26; assay type: biochemical; details: purified CD26 (1.5 mU in PBS), 37° C.
Description: A variety of test compounds have been evaluated for their substrate activity against purified CD26, human serum (HS), and bovine serum (BS) in Eppendorf tubes. The 400 μL reaction mixture contained 50 μM of test compound in PBS (containing 0.1% DMSO). The reaction was started by the addition of purified CD26 (1.5 mU) or 20% of HS (in PBS) or BS (in PBS) at 37° C. At different time points, 100 μL was withdrawn from the reaction mixture, added to 200 μL methanol, and put on ice for ˜10 min. Then, the mixture was centrifuged at 13,000 rpm for 5 min at 4° C. and 250 μL of supernatant was analyzed by HPLC on a reverse phase RP-8 column, using following gradients: […]
as §3, §4

[11] = Conversion in human serum (10%); assay type: in vitro ADME; details: Human serum 10% in PBS, 37° C.
Description: as §2, §3, §4

[12] = overnight, means of three determinations
[13] = Human alphaherpesvirus 3, HEL, 120 h, Table 3b, plaque formation
[14] = Human alphaherpesvirus 3, HEL, 120 h, read-out: EC50 VZV TK− 07/1, Table 3b, plaque formation, 5 days
[15] = Human alphaherpesvirus 3, HEL, 120 h, read-out: EC50 VZV TK+ OKA, Table 3b, plaque formation, 5 days

purified CD26, sequence (P27487 whole entry, species assumed): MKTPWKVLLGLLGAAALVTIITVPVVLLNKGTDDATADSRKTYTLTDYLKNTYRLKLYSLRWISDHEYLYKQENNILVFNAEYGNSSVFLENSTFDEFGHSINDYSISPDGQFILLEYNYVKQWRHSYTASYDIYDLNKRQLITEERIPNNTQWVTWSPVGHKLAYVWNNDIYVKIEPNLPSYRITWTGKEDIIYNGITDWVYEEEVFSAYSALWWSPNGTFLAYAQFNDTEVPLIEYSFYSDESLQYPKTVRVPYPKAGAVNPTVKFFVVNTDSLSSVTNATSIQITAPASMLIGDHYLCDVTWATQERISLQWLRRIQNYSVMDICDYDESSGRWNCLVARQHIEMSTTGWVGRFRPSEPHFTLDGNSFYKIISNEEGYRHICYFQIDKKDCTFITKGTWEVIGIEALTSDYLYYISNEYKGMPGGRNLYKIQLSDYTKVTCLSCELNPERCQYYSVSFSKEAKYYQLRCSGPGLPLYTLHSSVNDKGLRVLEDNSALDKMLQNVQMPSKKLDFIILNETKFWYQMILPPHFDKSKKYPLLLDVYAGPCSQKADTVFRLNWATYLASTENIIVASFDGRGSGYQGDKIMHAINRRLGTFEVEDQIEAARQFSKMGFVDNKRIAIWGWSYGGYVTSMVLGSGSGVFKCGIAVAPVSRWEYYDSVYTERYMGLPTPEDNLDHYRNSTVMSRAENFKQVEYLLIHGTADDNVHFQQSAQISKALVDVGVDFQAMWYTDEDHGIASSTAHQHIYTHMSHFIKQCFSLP

CCCCCc1ccc(-c2cc3cn([C@H]4CC(O)[C@@H](CO)O4)c(=O)nc3o2)cc1 (stereo partly drawn) [Compound 1, reference compound]
Solubility in water [1, 12]: 22 ± 7 µg/mL (≈ 55.2 µM)
solubility ([1]; read-out: water-solubility): 22 µg/mL (≈ 55.2 µM)

CCCCCc1ccc(-c2cc3cn([C@H]4CC(OC(=O)C(N)C(C)C)[C@@H](CO)O4)c(=O)nc3o2)cc1 (stereo partly drawn) [Compound 3, 3-[2′-Deoxy-3′-O-valyl-β-D-ribofuranosyl]-6-(p-pentylphenyl)-2,3-dihydrofuro[2,3-d]pyrimidin-2-one, reference compound]
antiviral activity in VZV-infected HEL cell cultures (in words) [2]: active
EC50 [3, 13]: 4 nM
cytotoxic or cytostatic (in words) [4]: Neither of them is cytotoxic or cytostatic
MCC ([4]; human): 20 µM
CC50 [5]: > 5000 nM
antiviral activity against VZV/TK− (in words) [6]: lose antiviral activity
EC50 [6, 14]: > 5000 nM
EC50 [7, 15]: 7 nM

CCCCCc1ccc(-c2cc3cn([C@H]4CC(O)[C@@H](COC(=O)C(N)C(C)C)O4)c(=O)nc3o2)cc1 (stereo partly drawn) [Compound 5, reference compound]
antiviral activity in VZV-infected HEL cell cultures (in words) [2]: active
EC50 ([3]; Human alphaherpesvirus 3, HEL, 120 h, Table 3, plaque formation): 30 nM
solubility ([1]; overnight, means of three determinations, read-out: Solubility in water): 211 ± 44 µg/mL (≈ 424 µM)
cytotoxic or cytostatic (in words) [4]: Neither of them is cytotoxic or cytostatic
MCC ([4]; human): >1 µM
CC50 [5]: > 500 nM
antiviral activity against VZV/TK− (in words) [6]: lose antiviral activity
EC50 ([6]; Human alphaherpesvirus 3, HEL, 120 h, read-out: EC50 VZV TK− 07/1, Table 3, plaque formation, 5 days): > 1000 nM
EC50 ([7]; Human alphaherpesvirus 3, HEL, 120 h, read-out: EC50 VZV TK+ OKA, Table 3, plaque formation, 5 days): 14 nM

CCCCCc1ccc(-c2cc3cn([C@H]4C[C@H](O)[C@@H](COC(=O)[C@@H](NC(=O)[C@@H]5CCCN5C(=O)[C@@H](N)C(C)C)C(C)C)O4)c(=O)nc3o2)cc1 [Compound 7]
antiviral activity in VZV-infected HEL cell cultures (in words) [2]: found to be active
EC50 ([3]; Table 3, plaque formation): 10 nM
water-solubility [1]: 1270 µg/mL
water-solubility relative to Compound 1 [1]: more than 57 fold
Solubility in water [1, 12]: 1270 ± 50 µg/mL (≈ 1830 µM)
Compound 1 in plasma (area under the curve (HPLC)) ([8]; 15 min after oral gavage): 32
Compound 1 in plasma (area under the curve (HPLC)) ([8]; 30 min after oral gavage): 52
Compound 1 in plasma (area under the curve (HPLC)) ([8]; 45 min after oral gavage): 87
Compound 1 in plasma (area under the curve (HPLC)) ([8]; 60 min after oral gavage): 44
Compound 1 in plasma (area under the curve (HPLC)) ([8]; 120 min after oral gavage): 14
Compound 1 in plasma (area under the curve (HPLC)) ([8]; 180 min after oral gavage): 6.2
increase of the oral bioavailability of Compound 1 (as estimated by the AUC values) ([8]; oral gavage, versus dosing Compound 1): approximately 12 fold
Formation of hydrolysis products (%): Compound 1 ([9]; 0 hr): 0%
Formation of hydrolysis products (%): Compound 5 ([9]; 0 hr): 0%
Formation of hydrolysis products (%): Compound 7 ([9]; 0 hr): 100%
Formation of hydrolysis products (%): Compound 1 ([9]; 1 hr): 20.3%
Formation of hydrolysis products (%): Compound 5 ([9]; 1 hr): 19.9%
Formation of hydrolysis products (%): Compound 7 ([9]; 1 hr): 59.8%
Formation of hydrolysis products (%): Compound 1 ([9]; 4 hr): 44.8%
Formation of hydrolysis products (%): Compound 5 ([9]; 4 hr): 34.7%
Formation of hydrolysis products (%): Compound 7 ([9]; 4 hr): 20.4%
Formation of hydrolysis products (%): Compound 1 ([9]; 20 hr): 74.4%
Formation of hydrolysis products (%): Compound 5 ([9]; 20 hr): 21%
Formation of hydrolysis products (%): Compound 7 ([9]; 20 hr): 3.3%
CC50 [4]: > 500 nM
MCC [4]: >1 µM
cytotoxic or cytostatic (in words) [4]: Neither of them is cytotoxic or cytostatic
antiviral activity against VZV/TK− (in words) [6]: lose antiviral activity
EC50 ([6]; Table 3, plaque formation, 5 days, read-out: EC50 VZV TK− 07/1): > 1000 nM
Formation of hydrolysis products (%): Compound 1 ([10]; 0 hr): 0%
Formation of hydrolysis products (%): Compound 5 ([10]; 0 hr): 0%
Formation of hydrolysis products (%): Compound 7 ([10]; 0 hr): 100%
Formation of hydrolysis products (%): Compound 1 ([10]; 2 hr): 49.4%
Formation of hydrolysis products (%): Compound 5 ([10]; 2 hr): 50.6%
Formation of hydrolysis products (%): Compound 7 ([10]; 2 hr): 0%
Formation of hydrolysis products (%): Compound 1 ([10]; 6 hr): 62.9%
Formation of hydrolysis products (%): Compound 5 ([10]; 6 hr): 37.1%
Formation of hydrolysis products (%): Compound 7 ([10]; 6 hr): 0%
Formation of hydrolysis products (%): Compound 1 ([10]; 20 hr): 75.5%
Formation of hydrolysis products (%): Compound 5 ([10]; 20 hr): 24.5%
Formation of hydrolysis products (%): Compound 7 ([10]; 20 hr): 0%
EC50 ([7]; Table 3, plaque formation, 5 days, read-out: EC50 VZV TK+ OKA): 12 nM
Formation of hydrolysis products (%): Compound 1 ([11]; 0 hr): 0%
Formation of hydrolysis products (%): Compound 5 ([11]; 0 hr): 0%
Formation of hydrolysis products (%): Compound 7 ([11]; 0 hr): 100%
Formation of hydrolysis products (%): Compound 1 ([11]; 1 hr): 57.6%
Formation of hydrolysis products (%): Compound 5 ([11]; 1 hr): 11.4%
Formation of hydrolysis products (%): Compound 7 ([11]; 1 hr): 31%
Formation of hydrolysis products (%): Compound 1 ([11]; 4 hr): 73.4%
Formation of hydrolysis products (%): Compound 5 ([11]; 4 hr): 21.5%
Formation of hydrolysis products (%): Compound 7 ([11]; 4 hr): 5.0%
Formation of hydrolysis products (%): Compound 1 ([11]; 20 hr): 88.5%
Formation of hydrolysis products (%): Compound 5 ([11]; 20 hr): 9.7%
Formation of hydrolysis products (%): Compound 7 ([11]; 20 hr): 1.8%

CCCCCc1ccc(-c2cc3cn(C4CC(OC(=O)C(NC(=O)C5CCCN5C(=O)C(N)C(C)C)C(C)C)C(CO)O4)c(=O)nc3o2)cc1 [Compound 9, 3-[2′-Deoxy-3′-O-(valyl-prolyl-valyl)-β-D-ribofuranosyl]-6-(p-pentylphenyl)-2,3-dihydrofuro[2,3-d]pyrimidin-2-one]
antiviral activity in VZV-infected HEL cell cultures (in words) [2]: found to be active
EC50 [3, 13]: 16 nM
cytotoxic or cytostatic (in words) [4]: Neither of them is cytotoxic or cytostatic
MCC ([4]; human): 20 µM
CC50 [5]: > 5000 nM
antiviral activity against VZV/TK− (in words) [6]: lose antiviral activity
EC50 [6, 14]: > 5000 nM
EC50 [7, 15]: 17 nM
